Source: patent US7064120B2, “Tricyclic pyridyl carboxamides and derivatives thereof tocolytic oxytocin receptor antagonists” (Wyeth, priority 2001, dated 2006)

Target: T1, human vasopressin V2 receptor subtype (Homo sapiens, UniProt P30518)
T1 construct: host or cells: CHO cells, stably transfected (pZeoSV vector)
Experiment: Vasopressin binding in CHO cell membranes expressing human vasopressin V2 subtype receptors ([3H]arginine vasopressin radioligand binding)
Conditions: 100 nM
Procedure, shortened: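 Membranes from CHO cells stably expressing human V2 receptor (25 to 50 μg protein/well) incubated 60 min at room temperature with [3H]arginine vasopressin in Tris-HCl pH 7.4 buffer with MgCl2, BSA and protease inhibitors. Filtration, scintillation counting; percent inhibition at one concentration or IC50 (nM).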

T1 sequence (P30518 whole entry): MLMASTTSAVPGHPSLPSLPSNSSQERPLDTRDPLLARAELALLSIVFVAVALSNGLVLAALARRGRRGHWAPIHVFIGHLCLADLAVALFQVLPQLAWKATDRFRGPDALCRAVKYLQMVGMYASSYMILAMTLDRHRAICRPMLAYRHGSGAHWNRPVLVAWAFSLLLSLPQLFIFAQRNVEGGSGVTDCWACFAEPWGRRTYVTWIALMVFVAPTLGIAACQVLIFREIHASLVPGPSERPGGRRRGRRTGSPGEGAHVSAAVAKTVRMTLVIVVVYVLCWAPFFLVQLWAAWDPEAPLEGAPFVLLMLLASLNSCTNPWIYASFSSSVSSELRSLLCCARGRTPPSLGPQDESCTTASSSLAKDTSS

Row | inhibition at 0.1 µM | SMILES
1 | 10% | COc1cccc(-c2ccc(C(=O)N3Cc4ccc(C(=O)N(C)CCc5ccncc5)n4Cc4ccccc43)cc2C)c1 [Example 128, 10-[(3′-Methoxy-2-methyl-[1,1′-biphenyl]-4-yl)carbonyl]-N-methyl-N-[2-(4-pyridinyl)ethyl]-10,11-dihydro-5H-pyrrolo[2,1-c][1,4]benzodiazepine-3-carboxamide]
2 | 28% | COc1ccccc1-c1ccc(C(=O)N2Cc3ccc(C(=O)N(C)CCc4ccncc4)n3Cc3ccccc32)cc1 [Example 129, 10-[(2′-Methoxy-[1,1′-biphenyl]-4-yl)carbonyl]-N-methyl-N-[2-(4-pyridinyl)ethyl]-10,11-dihydro-5H-pyrrolo[2,1-c][1,4]benzodiazepine-3-carboxamide]
3 | 12% | Cc1ccccc1-c1ccc(C(=O)N2Cc3ccc(C(=O)N(C)CCc4ccncc4)n3Cc3ccccc32)cc1 [Example 130, N-Methyl-10-[(2′-methyl-[1,1′-biphenyl]-4-yl)carbonyl]-N-[2-(4-pyridinyl)ethyl]-10,11-dihydro-5H-pyrrolo[2,1-c][1,4]benzodiazepine-3-carboxamide]
4 | -5% | COc1cc(C(=O)N2Cc3ccc(C(=O)N(C)CCc4ccncc4)n3Cc3ccccc32)ccc1-c1ccccc1C [Example 131, 10-[(2-Methoxy-2′-methyl-[1,1′-biphenyl]-4-yl)carbonyl]-N-methyl-N-[2-(4-pyridinyl)ethyl]-10,11-dihydro-5H-pyrrolo[2,1-c][1,4]benzodiazepine-3-carboxamide]
5 | 25% | COc1cc(-c2ccccc2C)c(Cl)cc1C(=O)N1Cc2ccc(C(=O)N(C)CCc3ccncc3)n2Cc2ccccc21 [Example 132, 10-[(6-Chloro-3-methoxy-2′-methyl-[1,1′-biphenyl]-4-yl)carbonyl]-N-methyl-N-[2-(4-pyridinyl)ethyl]-10,11-dihydro-5H-pyrrolo[2,1-c][1,4]benzodiazepine-3-carboxamide]
6 | 15% | COc1cccc(-c2cc(OC)c(C(=O)N3Cc4ccc(C(=O)N(C)CCc5ccncc5)n4Cc4ccccc43)cc2Cl)c1 [Example 133, 10-[(6-Chloro-3,3′-dimethoxy-[1,1′-biphenyl]-4-yl)carbonyl]-N-methyl-N-[2-(4-pyridinyl)ethyl]-10,11-dihydro-5H-pyrrolo[2,1-c][1,4]benzodiazepine-3-carboxamide]
7 | 1% | COc1cc(C(=O)N2Cc3ccc(C(=O)N(C)CCc4ccncc4)n3Cc3ccccc32)ccc1-c1cccc2ccccc12 [Example 134, 10-[3-Methoxy-4-(naphthalen-1-yl)benzoyl]-N-methyl-N-[2-(4-pyridinyl)ethyl]-10,11-dihydro-5H-pyrrolo[2,1-c][1,4]benzodiazepine-3-carboxamide]
8 | 35% | COc1cccc(-c2ccc(C(=O)N3Cc4ccc(C(=O)N(C)CCc5ccncc5)n4Cc4ccccc43)cc2OC)c1 [Example 135, 10-[(2,3′-Dimethoxy-[1,1′-biphenyl]-4-yl)carbonyl]-N-methyl-N-[2-(4-pyridinyl)ethyl]-10,11-dihydro-5H-pyrrolo[2,1-c][1,4]benzodiazepine-3-carboxamide]
9 | 19% | CN(CCc1ccncc1)C(=O)c1ccc2n1Cc1ccccc1N(C(=O)c1ccc(-c3cccc4ccccc34)cc1Cl)C2 [Example 136, 10-[2-Chloro-4-(naphthalen-1-yl)benzoyl]-N-methyl-N-[2-(4-pyridinyl)ethyl]-10,11-dihydro-5H-pyrrolo[2,1-c][1,4]benzodiazepine-3-carboxamide]
10 | 11% | Cc1cc(C(=O)N2Cc3ccc(C(=O)N(C)CCc4ccncc4)n3Cc3ccccc32)ccc1-c1ccccc1C(F)(F)F [Example 137, N-Methyl-10-{[2-methyl-2′-trifluoromethyl-[1,1′-biphenyl]-4-yl]carbonyl}-N-[2-(4-pyridinyl)ethyl]-10,11-dihydro-5H-pyrrolo[2,1-c][1,4]benzodiazepine-3-carboxamide]
11 | 42% | COc1ccccc1-c1ccc(C(=O)N2Cc3ccc(C(=O)N4CCCCC4c4cccnc4)n3Cc3ccccc32)cc1C (stereo not shown) [Example 138, {10-[(2′-Methoxy-2-methyl-[1,1′-biphenyl]-4-yl)carbonyl]-10,11-dihydro-5H-pyrrolo[2,1-c][1,4]benzodiazepin-3-yl}[2-(3-pyridinyl)-1-piperidinyl]methanone]
12 | 34% | COc1ccccc1-c1ccc(C(=O)N2Cc3ccc(C(=O)N4CCCCC4c4cccnc4)n3Cc3ccccc32)cc1 (stereo not shown) [Example 139, {10-[(2′-Methoxy-[1,1′-biphenyl]-4-yl)carbonyl]-10,11-dihydro-5H-pyrrolo[2,1-c][1,4]benzodiazepin-3-yl}[2-(3-pyridinyl)-1-piperidinyl]methanone]
13 | 29% | COc1cc(-c2ccccc2C)c(Cl)cc1C(=O)N1Cc2ccc(C(=O)N3CCCCC3c3cccnc3)n2Cc2ccccc21 (stereo not shown) [Example 140, {10-[(6-Chloro-3-methoxy-2′-methyl-[1,1′-biphenyl]-4-yl)carbonyl]-10,11-dihydro-5H-pyrrolo[2,1-c][1,4]benzodiazepin-3-yl}[2-(3-pyridinyl)-1-piperidinyl]methanone]
14 | 40% | COc1ccccc1-c1ccc(C(=O)N2Cc3ccc(C(=O)N4CCCCC4c4cccnc4)n3Cc3ccccc32)cc1OC (stereo not shown) [Example 141, {10-[(2,2′-Dimethoxy-[1,1′-biphenyl]-4-yl)carbonyl]-10,11-dihydro-5H-pyrrolo[2,1-c][1,4]benzodiazepin-3-yl}[2-(3-pyridinyl)-1-piperidinyl]methanone]
15 | 16% | Cc1cc(C(=O)N2Cc3ccc(C(=O)N4CCCCC4c4cccnc4)n3Cc3ccccc32)ccc1-c1ccccc1C(F)(F)F (stereo not shown) [Example 142, (10-{[2-Methyl-2′-trifluoromethyl-[1,1′-biphenyl]-4-yl]carbonyl}-10,11-dihydro-5H-pyrrolo[2,1-c][1,4]benzodiazepin-3-yl)[2-(3-pyridinyl)-1-piperidinyl]methanone]
16 | 2% | COc1cc(C(=O)N2Cc3ccc(C(=O)N(C)CCc4ccccn4)n3Cc3ccccc32)ccc1-n1c(C)ccc1C [Example 144, 10-[4-(2,5-Dimethyl-1H-pyrrol-1-yl)-3-methoxybenzoyl]-N-methyl-N-[2-(pyridin-2-yl)ethyl]-10,11-dihydro-5H-pyrrolo[2,1-c][1,4]benzodiazepine-3-carboxamide]
17 | 2% | COc1cc(C(=O)N2Cc3ccc(C(=O)N4CCN(c5ccccn5)CC4)n3Cc3ccccc32)ccc1-n1c(C)ccc1C [Example 145, {10-[4-(2,5-Dimethyl-1H-pyrrol-1-yl)-3-methoxybenzoyl]-10,11-dihydro-5H-pyrrolo[2,1-c][1,4]benzodiazepin-3-yl}[4-(pyridin-2-yl)-1-piperazinyl]methanone]
18 | 15% | COc1cc(C(=O)N2Cc3ccc(C(=O)N4CCN(c5ccncc5)CC4)n3Cc3ccccc32)ccc1-n1c(C)ccc1C [Example 146, {10-[4-(2,5-Dimethyl-1H-pyrrol-1-yl)-3-methoxybenzoyl]-10,11-dihydro-5H-pyrrolo[2,1-c][1,4]benzodiazepin-3-yl}[4-(pyridin-4-yl)-1-piperazinyl]methanone]
19 | 21% | COc1cc(C(=O)N2Cc3ccc(C(=O)N(C)CCc4ccncc4)n3Cc3ccccc32)ccc1-n1c(C)ccc1C [Example 147, 10-[4-(2,5-Dimethyl-1H-pyrrol-1-yl)-3-methoxybenzoyl]-N-methyl-N-[2-(pyridin-4-yl)ethyl]-10,11-dihydro-5H-pyrrolo[2,1-c][1,4]benzodiazepine-3-carboxamide]
